The subject of the data set is rodent carcinogenicity bioassays, tumor incidence. Description: CCRIS carcinogenicity studies. The settings on record: Species: MOUSE. An outline of the steps:
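NCI-built, expert-reviewed records of carcinogenicity and related test outcomes (mutagenicity, tumor promotion/inhibition) compiled from published and report sources, historical span 1985-2011, not updated.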

The text below walks through data of PubChem BioAssay AID1259411 (Chemical Carcinogenesis Research Information System (CCRIS), 2018).

The source made the active and inactive calls. How the calls were made is not given here.

For the compound `c1ccc2c(c1)cc1ccc3cccc4ccc2c1c34`, the carcinogen call (Strain/Sex: C3H/MALE, Route: DERMAL, Dose: 0.15-470 UG, 3/WK FOR LIFE, Tumor Site: Type of Lesion: INTEGUMENTARY SYSTEM (SKIN)) is “active; positive”; the carcinogen call (Strain/Sex: C3H/MALE, Route: SUBCUTANEOUS, Dose: 0.00195-8.0 MG, SINGLE DOSE, Tumor Site: Type of Lesion: INJECTION SITE: SARCOMA) is “active; positive”; the carcinogen call (Strain/Sex: C3H, Route: DERMAL, Dose: 0.00002-0.02%, 3/WK FOR UP TO 80 WK, Tumor Site: Type of Lesion: INTEGUMENTARY SYSTEM (SKIN)) is “active; positive”; the carcinogen call (Strain/Sex: C57BL/FEMALE, Route: INTRATRACHEAL, Dose: 0, 1 MG ON CHARCOAL POWDER INSTILLED 8 TIMES (STUDY DURATION: 13 WK), Tumor Site: Type of Lesion: LUNG: SQUAMOUS CELL CARCINOMA OR ADENOCARCINOMA) is “active; positive”; the carcinogen call (Strain/Sex: C57BL/FEMALE, Route: SUBCUTANEOUS, Dose: 0, 0.5, 1 MG IN 1% AQUEOUS GELATIN INJECTED IN THE SCAPULAR REGION OF NEWBORN MICE ONCE (STUDY DURATION: 9 WK), Dose: 0, 0.5, 1 MG IN 1% AQUEOUS GELATIN INJECTED IN THE SCAPULAR REGION OF NEWBORN MICE ONCE (STUDY DURATION: 9 WK)) is “inactive; negative”; the carcinogen call (Strain/Sex: C57BL/MALE, Route: SUBCUTANEOUS, Dose: 0, 0.5, 1 MG IN 1% AQUEOUS GELATIN INJECTED IN THE SCAPULAR REGION OF NEWBORN MICE ONCE (STUDY DURATION: 9 WK), Dose: 0, 0.5, 1 MG IN 1% AQUEOUS GELATIN INJECTED IN THE SCAPULAR REGION OF NEWBORN MICE ONCE (STUDY DURATION: 9 WK)) is “inactive; negative”. Further, the carcinogen call runs as follows: (Strain/Sex: C57BL, Route: DERMAL, Dose: 0.0001-0.5%, 3/WK, Tumor Site: Type of Lesion: INTEGUMENTARY SYSTEM (SKIN)) “active; positive”; (Strain/Sex: C57BL, Route: SUBCUTANEOUS, Dose: 0.00004, 0.0004, 0.004, 0.04 MG, SINGLE DOSE, Tumor Site: Type of Lesion: INJECTION SITE: SARCOMA) “active; positive”; (Strain/Sex: C57BR/CDJ/FEMALE, Route: SUBCUTANEOUS, Dose: 0, 0.5, 1 MG IN 1% AQUEOUS GELATIN INJECTED IN THE SCAPULAR REGION OF NEWBORN MICE ONCE (STUDY DURATION: 9 WK), Dose: 0, 0.5, 1 MG IN 1% AQUEOUS GELATIN INJECTED IN THE SCAPULAR REGION OF NEWBORN MICE ONCE (STUDY DURATION: 9 WK)) “inactive; negative”; (Strain/Sex: C57BR/CDJ/MALE, Route: SUBCUTANEOUS, Dose: 0, 0.5, 1 MG IN 1% AQUEOUS GELATIN INJECTED IN THE SCAPULAR REGION OF NEWBORN MICE ONCE (STUDY DURATION: 9 WK), Dose: 0, 0.5, 1 MG IN 1% AQUEOUS GELATIN INJECTED IN THE SCAPULAR REGION OF NEWBORN MICE ONCE (STUDY DURATION: 9 WK)) “inactive; negative”; (Strain/Sex: CAF1, Route: DERMAL, Dose: 0.0005, 0.001, 0.5%, 3/WK, Tumor Site: Type of Lesion: INTEGUMENTARY SYSTEM (SKIN): PAPILLOMA) “active; positive”; (Strain/Sex: CFW/MALE, FEMALE, Route: ORAL, Dose: 30-250 PPM IN DIET FOR 70-197 D, Tumor Site: Type of Lesion: STOMACH) “active; positive”. Moreover, the carcinogen call is, setting by setting: (Strain/Sex: CFW/MALE, FEMALE, Route: ORAL, Dose: 250 PPM IN DIET FOR 1-30 D, OBSERVED UNTIL 103-107 D, Tumor Site: Type of Lesion: FORESTOMACH) “active; positive”; (Strain/Sex: CFW, Route: SUBCUTANEOUS, Dose: 0.001-2 MG, SINGLE DOSE, Tumor Site: Type of Lesion: INJECTION SITE: FIBROSARCOMA) “active; positive”; (Strain/Sex: DBA/2/FEMALE, Route: INTRATRACHEAL, Dose: 0, 1 MG ON CHARCOAL POWDER INSTILLED 8 TIMES (STUDY DURATION: 13 WK)) “inactive; negative”; (Strain/Sex: EU-PIM-1/MALE, Route: GAVAGE, Dose: 0, 4.3, 13, 39 MG/KG BW IN 0.1 ML SOY OIL 3/WK FOR 13 WK (STUDY DURATION: 291 D), Dose: 0, 4.3, 13, 39 MG/KG BW IN 0.1 ML SOY OIL 3/WK FOR 13 WK (STUDY DURATION: 291 D), Tumor Site: Type of Lesion: LYMPHATIC SYSTEM: LYMPHOMA, FORESTOMACH: TUMOR) “active; positive”; (Strain/Sex: ICR/FEMALE, Route: INTRAPERITONEAL, Dose: 0, 59.5 UG TOTAL DOSE (8.5 UG/5 µL, 17 UG/10 µL, 34 UG/20 µL DMSO ON DAYS 1, 8 AND 15) ADMINISTERED TO NEWBORN ANIMALS (, Tumor Site: Type of Lesion: LUNG: ADENOMA) “active; positive”; (Strain/Sex: ICR/MALE, Route: INTRAPERITONEAL, Dose: 0, 59.5 UG TOTAL DOSE (8.5 UG/5 µL, 17 UG/10 µL, 34 UG/20 µL DMSO ON DAYS 1, 8 AND 15) ADMINISTERED TO NEWBORN ANIMALS (, Tumor Site: Type of Lesion: LUNG: ADENOMA) “active; positive”. For the same compound, the carcinogen call (Strain/Sex: N:GP(S)/FEMALE, Route: INTRATRACHEAL, Dose: 0, 1 MG ON CHARCOAL POWDER INSTILLED 8 TIMES (STUDY DURATION: 13 WK)) is “inactive; negative”; the carcinogen call (Strain/Sex: N:GP(S)/FEMALE, Route: SUBCUTANEOUS, Dose: 0, 40, 62.5, 125, 250, 500, 1000 UG FOR 9 WK (STUDY DURATION: 9 WK), Dose: 0, 40, 62.5, 125, 250, 500, 1000 UG FOR 9 WK (STUDY DURATION: 9 WK), Tumor Site: Type of Lesion: LUNG: ADENOMA) was “active; positive”; the carcinogen call (Strain/Sex: N:GP(S)/MALE, Route: SUBCUTANEOUS, Dose: 0, 40, 62.5, 125, 250, 500, 1000 UG FOR 9 WK (STUDY DURATION: 9 WK), Dose: 0, 40, 62.5, 125, 250, 500, 1000 UG FOR 9 WK (STUDY DURATION: 9 WK), Tumor Site: Type of Lesion: LUNG: ADENOMA) is “active; positive”.
